One block for each molecule: values may come before it.
How the values were obtained:
[1] = Quantum yield measurements versus Acridine Yellow in EtOH; format: physicochemical; conditions: for φ (%): quantum yield; for φ (quantum yield): excitation 460 nm
Method: (§1) ^1H-NMR, ^19F-NMR and ^13C-NMR spectra were recorded on Bruker ACF300 (300 MHz), DPX300 (300 MHz) and AMX500 (500 MHz) spectrometers. High resolution mass spectra (ESI) were obtained on a Finnigan/MAT 95XL-T spectrometer. Spectroscopic and quantum yield data were measured on a SpectraMax M2 spectrophotometer (Molecular Devices). Data analysis was performed using GraphPrism 5.0. Analytical characterization was performed on a HPLC-MS (Agilent-1200 series) with a DAD detector and a single quadrupole mass spectrometer (6130 series) with an ESI probe. Analytical HPLC method: eluents, A: H2O (0.1% HCOOH), B: CH3CN (0.1% HCOOH), gradient 5% B to 95% B (10 min). Reverse-phase Phenomenex C18 Luna column (4.6×50 mm^2, 3.5 […]), flow rate: 1 mL/min.
Quantum yields were calculated by measuring the integrated emission area of the fluorescent spectra and comparing to the area measured for Acridine Yellow in EtOH when excited at 460 nm (Φfluorescence^AcridineYellow=0.47). Quantum yields for the amino-triazolyl-BODIPYs were calculated using the equation below, where F represents the area of fluorescent emission, η is the refractive index of the solvent, and Abs is absorbance at the excitation wavelength selected for standards and samples. Emission was integrated between 510 and 700 nm.

[2] = Absorbance and fluorescence emission spectra (SpectraMax M2); format: physicochemical; conditions: for λmax Absorp. (nm) / λmax Emission (nm): MKCA compound library; for λmax Absorp. (nm) / λmax Abs. (nm): absorbance maximum; for λmax Emission (nm) / λmax Em. (nm): fluorescence emission maximum; for λmax Abs. (nm) / λmax Em. (nm): MKAC compound library
Method: BDC-8 (Blue): absorbance λmax=473 nm, emission λmax=585 nm; MK101-8 (Green): absorbance λmax=474 nm, emission λmax=563 nm; MKHA374-48 (Yellow): absorbance λmax=468 nm, λem=557 nm. The corresponding spectra of a reported BODIPY (BD-27; Red) are also included for comparison: absorbance λmax=551 nm, emission λmax=568 nm. The structures of BDC-8, MK101-8, MKHA374-48 and BD-27 are also depicted.
as §1

φ (%) ([1]; MKCA compound library): 1.94% | λmax Absorp. (nm) [2]: 463 nm | λmax Emission (nm) [2]: 574 nm
SMILES: O=C(CCl)Nc1ccc(C2=C3C=CC(N4CCCC4)=[N+]3[B-](F)(F)n3c2ccc3-n2cc(C3CCCC3)nn2)cc1 [MKCA215-5]

φ (%) ([1]; MKAC compound library): 2.70% | λmax Abs. (nm) [2]: 461 nm | λmax Em. (nm) [2]: 566 nm
SMILES: CCCc1cn(-c2ccc3n2[B-](F)(F)[N+]2=C(N4CCCC4)C=CC2=C3c2ccc(NC(C)=O)cc2)nn1 [MKAC215-48]

φ (%) ([1]; MKCA compound library): 3.15% | λmax Absorp. (nm) [2]: 467 nm | λmax Emission (nm) [2]: 581 nm
SMILES: CCCC(C)c1cn(-c2ccc3n2[B-](F)(F)[N+]2=C(N4CC(C)OC(C)C4)C=CC2=C3c2ccc(NC(=O)CCl)cc2)nn1 (stereo not drawn) [MKCA20-3]

φ (quantum yield) ([1]; MK library, Table 5): 0.56% | λmax Absorp. ([2]; MK library, Table 5): 470 nm | λmax Emission ([2]; MK library, Table 5): 574 nm
SMILES: Nc1ccc(C2=C3C=CC(N4CCCC4)=[N+]3[B-](F)(F)n3c2ccc3-n2cc(CC3CCCCC3)nn2)cc1 [MK215-8]

φ (quantum yield) ([1]; BDCAC library, Table 3): 0.9% | λmax Absorp. ([2]; BDCAC library, Table 3): 463 nm | λmax Emission ([2]; BDCAC library, Table 3): 569 nm
SMILES: CC(=O)Nc1ccc(C2=C3C=CC(N4CCCCC4)=[N+]3[B-](F)(F)n3c2ccc3-n2cc(-c3cccc(F)c3)nn2)cc1 [BDCAC-31]

φ (quantum yield) ([1]; BDCAC library, Table 3): 1.6% | λmax Absorp. ([2]; BDCAC library, Table 3): 464 nm | λmax Emission ([2]; BDCAC library, Table 3): 558 nm
SMILES: CCCCc1ccc(-c2cn(-c3ccc4n3[B-](F)(F)[N+]3=C(N5CCCCC5)C=CC3=C4c3ccc(NC(C)=O)cc3)nn2)cc1 [BDCAC-12]

φ (quantum yield) ([1]; BDC library, Table 2): 0.74% | λmax Absorp. ([2]; BDC library, Table 2): 471 nm | λmax Emission ([2]; BDC library, Table 2): 552 nm
SMILES: CC(C)(C)c1ccc(-c2cn(-c3ccc4n3[B-](F)(F)[N+]3=C(N5CCCCC5)C=CC3=C4c3ccc(N)cc3)nn2)cc1 [BDC-11]

φ (%) ([1]; MKAC compound library): 18.11% | λmax Abs. (nm) [2]: 465 nm | λmax Em. (nm) [2]: 561 nm
SMILES: CC(=O)Nc1ccc(C2=C3C=CC(NCc4ccccc4C)=[N+]3[B-](F)(F)n3c2ccc3-n2cc(CO)nn2)cc1 [MKAC101-70]

φ (quantum yield) ([1]; BDCAC library, Table 3): 1.3% | λmax Absorp. ([2]; BDCAC library, Table 3): 467 nm | λmax Emission ([2]; BDCAC library, Table 3): 575 nm
SMILES: CCCCCCCCCCc1cn(-c2ccc3n2[B-](F)(F)[N+]2=C(N4CCCCC4)C=CC2=C3c2ccc(NC(C)=O)cc2)nn1 [BDCAC-49]

φ (%) ([1]; MKCA compound library): 6.11% | λmax Absorp. (nm) [2]: 466 nm | λmax Emission (nm) [2]: 581 nm
SMILES: CC1CN(C2=[N+]3C(=C(c4ccc(NC(=O)CCl)cc4)c4ccc(-n5cc(C6CC6)nn5)n4[B-]3(F)F)C=C2)CC(C)O1 (stereo not drawn) [MKCA20-4]

φ (%) ([1]; MKCA compound library): 25.80% | λmax Absorp. (nm) [2]: 465 nm | λmax Emission (nm) [2]: 560 nm
SMILES: COc1ccc(OC)c(CNC2=[N+]3C(=C(c4ccc(NC(=O)CCl)cc4)c4ccc(-n5cc(C6CCCC6)nn5)n4[B-]3(F)F)C=C2)c1 [MKCA181-5]

φ (quantum yield) ([1]; MK library, Table 5): 0.28% | λmax Absorp. ([2]; MK library, Table 5): 474 nm | λmax Emission ([2]; MK library, Table 5): 566 nm
SMILES: COc1ccc(OC)c(CNC2=[N+]3C(=C(c4ccc(N)cc4)c4ccc(-n5cc(C6CC6)nn5)n4[B-]3(F)F)C=C2)c1 [MK181-4]

φ (quantum yield) ([1]; BDCAC library, Table 3): 3.2% | λmax Absorp. ([2]; BDCAC library, Table 3): 463 nm | λmax Emission ([2]; BDCAC library, Table 3): 551 nm
SMILES: CC(=O)Nc1ccc(C2=C3C=CC(N4CCCCC4)=[N+]3[B-](F)(F)n3c2ccc3-n2cc(-c3cccc(C)c3)nn2)cc1 [BDCAC-45]

φ (quantum yield) ([1]; BDC library, Table 2): 0.08% | λmax Absorp. ([2]; BDC library, Table 2): 476 nm | λmax Emission ([2]; BDC library, Table 2): 594 nm
SMILES: Nc1ccc(C2=C3C=CC(N4CCCCC4)=[N+]3[B-](F)(F)n3c2ccc3-n2cc(CCc3ccccc3)nn2)cc1 [BDC-19]

φ (quantum yield) ([1]; MK library, Table 5): 0.29% | λmax Absorp. ([2]; MK library, Table 5): 470 nm | λmax Emission ([2]; MK library, Table 5): 576 nm
SMILES: Nc1ccc(C2=C3C=CC(N4CCCC4)=[N+]3[B-](F)(F)n3c2ccc3-n2cc(C3CC3)nn2)cc1 [MK215-4]

φ (%) ([1]; MKCA compound library): 3.23% | λmax Absorp. (nm) [2]: 469 nm | λmax Emission (nm) [2]: 586 nm
SMILES: CCCCCC(O)c1cn(-c2ccc3n2[B-](F)(F)[N+]2=C(N4CC(C)OC(C)C4)C=CC2=C3c2ccc(NC(=O)CCl)cc2)nn1 (stereo not drawn) [MKCA20-69]

φ (quantum yield) ([1]; BDC library, Table 2): 0.16% | λmax Absorp. ([2]; BDC library, Table 2): 475 nm | λmax Emission ([2]; BDC library, Table 2): 590 nm
SMILES: Nc1ccc(C2=C3C=CC(N4CCCCC4)=[N+]3[B-](F)(F)n3c2ccc3-n2cc(C3CC3)nn2)cc1 [BDC-4]

φ (quantum yield) ([1]; BDCAC library, Table 3): 1.6% | λmax Absorp. ([2]; BDCAC library, Table 3): 467 nm | λmax Emission ([2]; BDCAC library, Table 3): 576 nm
SMILES: CCCc1cn(-c2ccc3n2[B-](F)(F)[N+]2=C(N4CCCCC4)C=CC2=C3c2ccc(NC(C)=O)cc2)nn1 [BDCAC-48]
